Marks after values point to notes of the source that are not given here.
Columns and labels:
[1] = TEM of nano-aggregates after incubation with caspase-3; format: physicochemical; details: after caspase-3 incubation
Method: FIG. 7C is a digital TEM image of nano-aggregates after incubation C-SNAF (50 μM) with recombinant human caspase-3 (4.9×10^−3 U/mL) overnight at 37° C. in caspase-3 buffer; scale bar, 1 μm.
No nano-aggregation was found in either of the control probe solutions after incubation with caspase-3.

[2] = Stability of PET tracers in mouse serum; format: in vitro ADME; details: 1 h incubation, 37° C.
Method: To the mouse serum (500 μL) 100 μL (approximately 100 μCi/3.7 MBq) of radioactive sample was added and the mixture was incubated at 37° C. At each time point, 100 μL of sample was taken and after mixing with 100 μL of acetonitrile was centrifuged at 9,400×g for 5 min. The resulting supernatants were collected, and an aliquot of each supernatant (100 μL) was diluted with 100 μL of water and analyzed via the same HPLC method used for quality control (fitted with a highly sensitive positron detector for radioactivity). The percent ratio of intact compound to the total radioactivity on the HPLC chromatogram was calculated as %=[(peak area for intact compound)/(total peak area)]×100.

caspase-3 = molecular target: T1, caspase-3 (Homo sapiens, UniProt P42574); assay: Incubation of PET tracer with recombinant caspase-3, radio-HPLC; format: biochemical; details: within 1 h, in buffer
T1 sequence (P42574 29-175 limits assumed): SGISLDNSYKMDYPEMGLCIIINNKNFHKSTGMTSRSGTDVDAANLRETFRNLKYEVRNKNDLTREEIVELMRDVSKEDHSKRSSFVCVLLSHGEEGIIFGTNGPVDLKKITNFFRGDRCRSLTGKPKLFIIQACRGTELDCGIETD
T1 sequence (P42574 176-277 limits assumed): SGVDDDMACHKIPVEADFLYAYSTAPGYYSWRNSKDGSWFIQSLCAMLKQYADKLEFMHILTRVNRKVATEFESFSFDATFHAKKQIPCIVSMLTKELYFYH
Method: To evaluate the activatable PET tracer 1 for caspase-3 detection, it was first incubated with recombinant caspase-3 in buffer.

apoptotic HeLa cells = assay: Cell uptake of tracer 1 in HeLa cells; format: cell-based, human
Method: HeLa cells (cultured in DMEM with 10% FBS and 1% ampicillin) were grown in a 6 well plate culture dish for 24 h. The wells were then divided into 3 groups. Group 1 wells were cultured normally for 24 h, then the medium was changed and the cells were cultured for another 24 h. Group 2 and 3 wells were cultured with 2 μM doxorubicin (DOX) for 24 h, then the medium was changed and the cells were cultured for another 24 h, group 2 in normal culture medium without doxorubicin and group 3 in normal culture medium without doxorubicin but together with 50 μM Z-VAD-FMK, a caspase-3 inhibitor.
After 48 h, 10 μCi (0.37 MBq) of 1 were added to all three groups and incubated for additional 4 h. Then the medium was removed, the cells washed 3 times with phosphate buffered saline, and 1 mL of Tryp-LETM Express was added and the cells were left for 1-2 min to allow to detach. The cell/Tryp-LE solution was counted in a gamma counter and the radioactivity was normalized to the protein concentration (determined by comparison with BSA standards in each vial.

HeLa tumor xenograft = assay: PET imaging of HeLa tumor xenograft-bearing nude mice; format: in vivo, mouse; details: for uptake ratio between tumor and muscle (T/M): treated tumors
Method: One group of animals was scanned at baseline (before treatment) and 4 days post treatment with 0.2 mg doxorubicin injected into the tumor. On the day of scanning, the animals were moved from their housing area to the PET scanner around 1 h prior to the experiment. They were constrained shortly in a tail veiner and injected intravenously, with 440±97 μCi (16±3 MBq) [^18F]C-SNAT formulation. They were anesthetized with 2% isoflurane shortly before placement in an R4 microPET scanner (Siemens Medical Solutions, USA). The anesthesia were continued with 2% isoflurane doing 5 min of acquisition. Scans using the control tracer 1-D (173±73 μCi/9±4 Mbq in 200 μL formulation) were carried out in a similar manner using two groups (one baseline and one treated) instead of the same animals at baseline and after treatment. The images were reconstructed using a standard 2D reconstruction without attenuation correction.
The reconstructed images were analyzed by making two volumes of interest (VOI), one on the tumor and one located on the left shoulder corresponding to muscle/bone mixture. The percent of injected dose per gram tissue (% ID/g) was calculated in each VOI and the ratio between tumor and muscle uptake was calculated based on this uptake (uptake in tumor/uptake in muscle region). The effect of treatment was calculated as the difference in uptake of [^18F]C-SNAT at baseline and after treatment.
Evaluation of activatable PET tracer 1 and control tracer 1-D for PET imaging of caspase-3 activity in vivo was performed in HeLa tumor xenograft-bearing nude mice. Tumors were implanted and grown for a minimum of 10 d before receiving intratumoral injection of 0.2 mg DOX (20 μL). 1 or 1-D (5-15 MBq/135-405 μCi) was injected through the tail vein for PET imaging 4 d post treatment. Static PET scans (5 min) were performed 65, 125 and 182 mins post tracer injection.

[3] = Ex vivo biodistribution of [18F]C-SNAT; format: in vivo, mouse; details: for Ratio of % ID/g over muscle ± SEM: 2 h post injection
Method: Mice were administered [^18F]C-SNAT (100-200 μCi/3.7-7.4 MBq in 100-200 μL of 0.9% saline solution) via tail vein injection and then euthanized by bilateral thoracotomy under anesthesia at 2 h after injection of tracer (n=3). All samples (tumor, heart, whole brain, gallbladder, kidney, liver, lung, muscle, bone, spleen, whole blood) were removed quickly following euthanasia and placed in pre-weighed test tubes. Standard solutions of the tracer were prepared by diluting approximately 100 μCi (3.7 MBq) tracer in 100 mL of water, of which 1 mL of aliquots were used for reference counting.
The test tubes containing tissue samples were weighed and the radioactivity was measured by an automated gamma counter (Cobra Model 5002, Packard, USA) along with the standard solutions.

Membrane Potential = details: cited from earlier work

CC[N+]1=C(C=CC=CC=C2N(CCCCCC(=O)NCCCCC3NC(=O)C4CSC(=N4)c4ccc5cc(ccc5n4)OCCCNC(=O)C4CSC(=N4)c4nc5ccc(cc5s4)NC3=O)c3ccc4c(S(=O)(=O)O)cc(S(=O)(=O)O)cc4c3C2(C)C)C(C)(C)c2c1ccc1c(S(=O)(=O)[O-])cc(S(=O)(=O)O)cc21 (stereo not shown) [C-SNAF-cycl]
average diameter of nano-aggregates (TEM) [1]: 174±44 nm

CCSSCC(NC(=O)[C@H](CC(=O)O)NC(=O)[C@@H](NC(=O)[C@H](CCC(=O)O)NC(=O)[C@H](CC(=O)O)NC(C)=O)C(C)C)C(=O)NC(Cc1cn(CCOCC[18F])nn1)C(=O)Nc1ccc2nc(C3=N[C@@H](C(=O)NCCCOc4ccc5nc(C#N)ccc5c4)CS3)sc2c1 (stereo partly shown) [[^18F]C-SNAT]
intact tracer in mouse serum [2]: 60%
tracer cyclized by recombinant caspase-3 (caspase-3): 90%
retained 18F activity in Dox-treated cells with caspase-3 inhibitor (apoptotic HeLa cells; Dox 2 μM plus Z-VAD-fmk): 1.3 fold
retained 18F activity in Dox-treated versus non-treated cells (apoptotic HeLa cells; Dox 2 μM, 4 h tracer incubation): 2.2 fold
uptake difference between baseline and treated (HeLa tumor xenograft; 65 min): 0.36±0.15 % ID/g
uptake difference between baseline and treated (HeLa tumor xenograft; 182 min): 0.63±0.11 % ID/g
uptake in tumor (HeLa tumor xenograft; DOX treated, 65 min): 1.17±0.17 % ID/g
uptake in tumor (HeLa tumor xenograft; DOX treated, 182 min): 1.29±0.07 % ID/g
uptake in tumor (HeLa tumor xenograft; baseline, 65 min): 0.81±0.28 % ID/g
uptake in tumor (HeLa tumor xenograft; baseline, 182 min): 0.67±0.24 % ID/g
Target/Background (HeLa tumor xenograft; maximum value at the apoptotic tissue): 7.0
time course of uptake in apoptotic tumors (HeLa tumor xenograft; mouse, in vivo): trend of increasing uptake over times
% ID/g at target site (HeLa tumor xenograft; mouse, tumor treatment, PET imaging): 1.3 ± 0.1 % ID/g
Treated/Untreated (HeLa tumor xenograft; target uptake ratio between pre and post treatment in same animal): 1.9^b
uptake ratio between tumor and muscle (T/M) (HeLa tumor xenograft; 65 min): 3.30 fold
uptake ratio between tumor and muscle (T/M) (HeLa tumor xenograft; 182 min): 7.00 fold
Ratio of % ID/g over muscle ± SEM ([3]; Bone): 2.4 ± 1.5
Ratio of % ID/g over muscle ± SEM ([3]; Brain): 0.5 ± 0.2
Ratio of % ID/g over muscle ± SEM ([3]; Heart): 4.5 ± 2.4
Ratio of % ID/g over muscle ± SEM ([3]; Kidney): 124.2 ± 46.6
Ratio of % ID/g over muscle ± SEM ([3]; Liver): 22.9 ± 9.7
Ratio of % ID/g over muscle ± SEM ([3]; Lung): 4.1 ± 1.8
Ratio of % ID/g over muscle ± SEM ([3]; Muscle): 1.0 ± 0.5
Ratio of % ID/g over muscle ± SEM ([3]; Plasma): 4.0 ± 1.8
Ratio of % ID/g over muscle ± SEM ([3]; Spleen): 1.7 ± 0.7
Ratio of % ID/g over muscle ± SEM ([3]; Tumor): 5.6 ± 2.3
Ratio of % ID/g over muscle ± SEM ([3]; Whole Blood): 5.1 ± 2.4
crossing of the blood-brain barrier ([3]; low uptake in brain tissue, 120 minutes post injection): could not cross the blood-brain barrier

CC(CCCCC[18F])(C(=O)O)C(=O)O [[^18F]ML-10]
% ID/g at target site (Membrane Potential; PET imaging, cerebral stroke): 0.3 ± 0.1 % ID/g
Treated/Untreated (Membrane Potential; stroke and non-stroke region in same animal): 2.3^f

— patent publication US9642922B2, “Caspase-triggered nano-aggregation probes and methods of use” (The Board of Trustees of the Leland Stanford Junior …, priority 2013, dated 2017)
